Results as given in paper PMC7176436, “Post-translational regulation of retinal IMPDH1 in vivo to adjust GTP synthesis to illumination conditions” (eLife, 2020).

Biological target: T1, IMPDH1 (murine retinal) (Mus musculus, UniProt P50096)
T1 construct: native, murine retina
Test: IMPDH1 spicule formation in retinas treated with […] MPA; SDS-PAGE mobility shift after injection of its prodrug MMF
Assay type: cell-based

T1 sequence (P50096 whole entry): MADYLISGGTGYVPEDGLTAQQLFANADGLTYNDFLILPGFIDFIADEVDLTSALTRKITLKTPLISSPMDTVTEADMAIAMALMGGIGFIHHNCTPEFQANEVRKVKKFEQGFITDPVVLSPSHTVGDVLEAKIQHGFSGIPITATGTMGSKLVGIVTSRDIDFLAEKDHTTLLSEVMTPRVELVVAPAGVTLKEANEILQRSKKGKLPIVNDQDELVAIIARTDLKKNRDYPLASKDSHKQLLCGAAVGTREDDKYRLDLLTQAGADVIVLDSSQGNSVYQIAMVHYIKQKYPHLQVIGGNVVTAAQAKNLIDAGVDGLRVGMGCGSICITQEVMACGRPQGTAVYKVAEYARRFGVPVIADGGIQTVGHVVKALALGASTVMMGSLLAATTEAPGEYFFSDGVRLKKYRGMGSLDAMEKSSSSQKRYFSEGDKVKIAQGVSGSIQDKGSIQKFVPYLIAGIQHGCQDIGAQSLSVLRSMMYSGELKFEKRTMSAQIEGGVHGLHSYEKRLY

## COc1c(C)c2c(c(O)c1C/C=C(\C)CCC(=O)O)C(=O)OC2 [mycophenolic acid]
  IMPDH1 spicule formation in retinas treated with 10 μM MPA; SDS-PAGE mobility sh: MPA inhibition of IMPDH1 resulted in the formation and accumulation of IMPDH1 spicules with time
